In PMC9847679, “The anti-breast cancer stem cell properties of gold(I)-non-steroidal anti-inflammatory drug complexes” (Chemical Science, 2022):
Like-named read-outs stand apart in the source and are kept apart here.

What was measured:
[1] = system: HMLER-shEcad mammospheres; test: Mammosphere viability assay (TOX8); type: cell-based, human; details: 5 days incubation
Experimental: Tumorsphere Formation and Viability Assay.
in ultralow-attachment 96-well plates (Corning) and incubated in MEGM supplemented with B27 (Invitrogen), 20 ng mL-1 EGF and 4 μg mL-1 heparin (Sigma) for 5 days. […] The viability of the mammospheres was determined by addition of a resazurin-based reagent, TOX8 (Sigma). After incubation for 16 h, the fluorescence of the solutions was read at 590 nm (λex = 560 nm). Viable mammospheres reduce the amount of the oxidised TOX8 form (blue) and concurrently increase the amount of the fluorescent TOX8 intermediate (red), indicating the degree of mammosphere cytotoxicity caused by the test compound. Fluorescence values were normalised to DMSO-containing controls and plotted as concentration of test compound versus % mammospheres viability. IC50 values were interpolated from the resulting dose dependent curves. The reported IC50 values are the average of three independent experiments, each consisting of two replicates per concentration level (overall n = 6).

[2] = system: HMLER-shEcad cells; test: Monolayer cytotoxicity (MTT assay), HMLER-shEcad cells; type: cell-based, human
Text: (§1) Cell Lines and Cell Culture Conditions. The human mammary epithelial HMLER and HMLER-shEcad cell lines were kindly donated by Prof. R. A. Weinberg (Whitehead Institute, MIT). The human epithelial breast MCF10A, breast adenocarcinoma MDA-MB-231 and MDA-MB-468, murine epithelial breast 4T1, and embryonic kidney HEK 293 cell lines were acquired from American Type Culture Collection (ATCC, Manassas, VA, USA).
(§2) HMLER, HMLER-shEcad, and MCF10A cells were maintained in Mammary Epithelial Cell Growth Medium (MEGM) with supplements and growth factors (BPE, hydrocortisone, hEGF, insulin, and gentamicin/amphotericin-B). MDA-MB-231, MDA-MB-468, 4T1, and HEK 293 cells were maintained in Dulbecco's Modified Eagle's Medium (DMEM) supplemented with fetal bovine serum (10 %) and penicillin/streptomycin (1 %). The cells were grown at 310 K in a humidified atmosphere containing 5% CO2.
(§3) Monolayer Cytotoxicity Studies. Exponentially growing cells were seeded at a density of approximately 5 × 10^3 cells per well in 96-well flat-bottomed microplates and allowed to attach for 24 h prior to addition of compounds. Various concentrations of the test compounds (0.0004-100 μM) were added and incubated for 72 h at 37 °C (total volume 200 μl). Stock solutions of the compounds were prepared as 10 mM DMSO solutions and diluted using cell […]
(§4) media. The final concentration of DMSO in each well was ≤1 %. After 72 h, 20 μl of MTT (4 mg mL-1 in PBS) was added to each well and the plates incubated for an additional 4 h at 37 °C. The media/MTT mixture was eliminated and DMSO (100 μl per well) was added to dissolve the formazan precipitates. The optical density was measured at 550 nm using a 96-well multiscanner autoreader. Absorbance values were normalised to (DMSO-containing) control wells and plotted as concentration of test compound versus % cell viability. IC50 values were interpolated from the resulting dose dependent curves. The reported IC50 values are the average of three independent experiments (n = 18). […]
(§5) After incubation for 16 […]
(§6) h, the fluorescence of the solutions was read at 590 nm (λex = 560 nm). Viable mammospheres reduce the amount of the oxidised TOX8 form (blue) and concurrently increase the amount of the fluorescent TOX8 intermediate (red), indicating the degree of mammosphere cytotoxicity caused by the test compound. […]
(§7) Cellular Uptake. To measure the cellular uptake of 1-3 about 1 million HMLER-shEcad cells were treated with 1-3 (0.25 μM) at 37 °C for 24 h. After incubation, the media was removed, the cells were washed with PBS (2 mL × 3) and harvested. The number of cells was counted at this stage, using a haemocytometer. This mitigates any cell death induced by 1-3 at the administered concentration and experimental cell loss. The cellular pellets were dissolved in 65% HNO3 (250 µL) overnight. A cellular pellet of HMLER-shEcad cells treated with 1 was also used to determine the gold content in the nuclear, cytoplasmic and membrane fractions. The Thermo Scientific NE-PER Nuclear and Cytoplasmic Extraction Kit was used to extract and separate the nuclear, cytoplasmic and membrane fractions. The fractions were dissolved in 65% HNO3 (250 µL final volume) overnight. All samples were diluted 17-fold with water and analysed using inductively coupled plasma mass spectrometry (ICP-MS, Thermo Scientific ICAP-Qc quadrupole ICP mass spectrometer). Gold levels are expressed as mass of Au (ng) per million cells. Results are presented as the mean of four determinations for each data point.
(§8) Intracellular ROS Assay. […]

[3] = system: HMLER cells; test: Monolayer cytotoxicity (MTT assay), HMLER cells; type: cell-based, human
Text: as §1, §2, §3, §4, §5, §6, §7, §8

[4] = system: HMLER-shEcad mammospheres; parameters: method as in PMID 26806362, PMID 31209956, PMID 28932846; details: read-out: Mammosphere IC50; cited from earlier work
[5] = system: HMLER cells; parameters: method as in PMID 26806362, PMID 31209956, PMID 28932846; details: cited from earlier work
[6] = system: HMLER-shEcad cells; parameters: method as in PMID 26806362, PMID 31209956, PMID 28932846; details: cited from earlier work
[7] = target: T1, COX-2 (Ovis aries, UniProt P79208); test: COX-2 inhibition enzyme immunoassay (EIA); type: biochemical, ovine; details: COX-2-catalysed conversion of arachidonic acid to prostaglandin, tested 1-250 μM
T1 construct: purchased Cayman Chemicals
T1 sequence (P79208 17-603): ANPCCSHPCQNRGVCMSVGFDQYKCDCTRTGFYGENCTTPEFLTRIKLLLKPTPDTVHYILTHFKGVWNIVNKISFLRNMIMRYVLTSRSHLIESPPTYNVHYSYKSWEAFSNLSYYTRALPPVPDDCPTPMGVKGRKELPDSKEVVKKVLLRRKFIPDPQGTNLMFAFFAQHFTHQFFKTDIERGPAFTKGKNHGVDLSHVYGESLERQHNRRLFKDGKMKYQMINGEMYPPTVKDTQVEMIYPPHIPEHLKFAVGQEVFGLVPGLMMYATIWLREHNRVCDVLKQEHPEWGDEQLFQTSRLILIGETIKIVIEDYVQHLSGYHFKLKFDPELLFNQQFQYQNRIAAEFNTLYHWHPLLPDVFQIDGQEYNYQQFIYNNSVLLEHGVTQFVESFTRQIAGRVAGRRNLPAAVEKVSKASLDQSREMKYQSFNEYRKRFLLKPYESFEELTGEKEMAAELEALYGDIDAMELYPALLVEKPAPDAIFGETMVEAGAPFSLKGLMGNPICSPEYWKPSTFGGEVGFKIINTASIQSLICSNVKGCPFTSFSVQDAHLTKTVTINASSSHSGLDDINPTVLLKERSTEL
Experimental: ice-cold methanol (for 30 min), and suspended in PBS (200 μL). […]
COX-2 Inhibition Enzyme Immunoassay (EIA). The COX-2 inhibitory properties of 1,
indomethacin, and ch loro(triphenylphosphine)gold(I) was determined using the “COX
(ovine) Inhibitor Screening Assay (Cayman Chemicals).” The assay was performed
according to the manuf acturer’s instructions using a 96-well plate set up.

[8] = Water-octanol partition coefficient (shake-flask, UV-vis); type: physicochemical; details: room temperature 24 h
Experimental: Measurement of water-octanol partition coefficient (LogP). The LogP values for 1-8 were determined using the shake-flask method and UV-vis spectroscopy. The 1-octanol used in this experiment was pre-saturated with water. An aqueous solution of 1-8 (500 μL, 100 μM) was incubated with 1-octanol (500 μL) in a 1.5 mL tube. The tube was shaken at room temperature for 24 h. The two phases were separated by centrifugation and the 1-8 content in each phase was determined by UV-vis spectroscopy. […]

[9] = system: MDA-MB-231 cells; test: Monolayer cytotoxicity (MTT assay), MDA-MB-231 cells; type: cell-based, human; details: 72 h incubation
Text: as §1, §2, §3
(§9) media. The final concentration of DMSO in each well was ≤1 %. […] The optical density was measured at 550 nm using a 96-well multiscanner autoreader. Absorbance values were normalised to (DMSO-containing) control wells and plotted as concentration of test compound versus % cell viability. […]
(§10) h, the fluorescence of the solutions was read at 590 nm (λex = 560 nm). […]
(§11) Cellular Uptake. […] The number of cells was counted at this stage, using a haemocytometer. […] All samples were diluted 17-fold with water and analysed using inductively coupled plasma mass spectrometry (ICP-MS, Thermo Scientific ICAP-Qc quadrupole ICP mass spectrometer). Gold levels are expressed as mass of Au (ng) per million cells. […]

[10] = system: 4T1 cells; test: Monolayer cytotoxicity (MTT assay), 4T1 cells; type: cell-based, murine; details: 72 h incubation
Text: as §1, §2, §3, §9, §10, §11

[11] = system: MDA-MB-468 cells; test: Monolayer cytotoxicity (MTT assay), MDA-MB-468 cells; type: cell-based, human; details: 72 h incubation
Text: as §1, §2, §3, §4
Cellular Uptake. […]

[12] = Solution stability by UV-vis and NMR spectroscopy; type: physicochemical
Experimental: The stability of 1–8 in solutions relevant for cell-based studies was determined by UV-vis spectroscopy studies. […] The DMSO- and PBS-stable complexes 1–4 (50 μM) were also deemed stable in MEGM : DMSO (1 : 1) over the course of 24 h at 37 °C (Fig. S22 ^†). Time course ^31P{^1H} and ^1H NMR spectroscopy studies were carried out to confirm the solution stability of 1–4. […] The ^1H NMR spectra for 1–3 (10 mM) remained unchanged over the same period (Fig. S26–S28 ^†). […] In the ^31P{^1H} NMR spectrum, the signal for intact 4 (at 27.05 ppm) completely disappeared after 48 h and was replaced by a signal corresponding to triphenylphosphine oxide (at 25.47 ppm) (Fig. S29 ^†). The formation of triphenylphosphine oxide was also detected in the ^1H NMR spectrum (Fig. S30 ^†). Additionally, plating of elemental gold was observed over the course of 72 h.

[13] = system: COX-2; test: COX-2 expression assay (flow cytometry); type: cell-based, human; details: LPS 2.5 μM 24 h pre-treatment; 1 at IC50 value or indomethacin 20 μM, 48 h
Experimental: COX-2 Expression Assay. HMLER-shEcad cells were seeded in 6-well plates (at a density […]
indomethacin (20 μM) and incubated for a further 48 h. The cells were then harvested by trypsinisation, fixed with 4% paraformaldehyde (at 37 °C for 10 min), permeabilised with ice-cold methanol (for 30 min), and suspended in PBS (200 μL). […]
labelled anti-COX-2 antibody (5 μL) was then added to the cell suspension and incubated in the dark for 1 h. The cells were then washed with PBS (1 mL) and analysed using a FACSCanto II flow cytometer (BD Biosciences) (10,000 events per sample were acquired) at the University of Leicester FACS Facility. The FL1 channel was used to assess COX-2 expression. Cell populations were analysed using the FlowJo software (Tree Star).
COX-2 Inhibition Enzyme Immunoassay (EIA). […]
(ovine) Inhibitor Screening Assay (Cayman Chemicals).” The assay was performed according to the manuf acturer’s instructions using a 96-well plate set up.

[14] = Homo sapiens, 72 h incubation, MTT
[15] = Homo sapiens, within concentration range tested

O=c1[nH]cc(F)c(=O)[nH]1 [5-Fluorouracil, 5-fluorouracil, reference compound]
IC50 ([1]; Homo sapiens, 120 h): 15 ± 1 µM

CCCCCOC(=O)Nc1nc(=O)n([C@@H]2O[C@H](C)[C@@H](O)[C@H]2O)cc1F [Capecitabine, capecitabine]
IC50 [2, 14]: > 100 µM
IC50 [3, 14]: > 100 µM
IC50 ([1]; Homo sapiens, 120 h): > 133 µM

N.N.O=C([O-])C1(C(=O)[O-])CCC1.[Pt+2] [Carboplatin, carboplatin]
IC50 [4]: 18 ± 1 µM

N.N.[Cl][Pt][Cl] [Cisplatin, cisplatin]
IC50 [5]: 2.565 ± 0.021 µM
IC50 [4]: 14 ± 2 µM
IC50 [6]: 5.65 ± 0.304 µM

CC[C@@H](C(=O)[C@@H](C)[C@@H](O)[C@H](C)[C@@H]1O[C@@H]([C@@H](CC)C(=O)O)CC[C@@H]1C)[C@H]1O[C@]2(C=C[C@@H](O)[C@]3(CC[C@@](C)([C@H]4CC[C@](O)(CC)[C@H](C)O4)O3)O2)[C@H](C)C[C@@H]1C [Salinomycin, salinomycin]
IC50 [4]: 19 ± 2 µM
IC50 [6]: 4.23 ± 0.35 µM

CC(=O)OC[C@H]1O[C@@H]([S-])[C@H](OC(C)=O)[C@@H](OC(C)=O)[C@@H]1OC(C)=O.CCP(CC)CC.[Au+] [auranofin]
IC50 ([2]; 72 h incubation, MTT): 0.026 ± 0.005 µM
fold more potent towards HMLER cells than HMLER-shEcad cells [3]: 2 fold
IC50 ([3]; 72 h incubation, MTT): 0.013 ± 0.002 µM

[Cl][Au].c1ccc(P(c2ccccc2)c2ccccc2)cc1 [chloro(triphenylphosphine)gold(I)]
IC50 ([2]; 72 h incubation, MTT): 0.216 ± 0.003 µM
fold less toxic towards HMLER and HMLER-shEcad cells than 1 ([2]; compared with 1): up to 3.8 fold
IC50 [7]: > 250 µM
IC50 ([3]; 72 h incubation, MTT): 0.207 ± 0.005 µM

O=C([O][Au][PH](c1ccccc1)(c1ccccc1)c1ccccc1)c1cc(-c2ccc(F)cc2F)ccc1O [complex 2]
IC50 ([2]; 72 h incubation, MTT): 0.138 ± 0.007 µM
IC50 ([3]; 72 h incubation, MTT): 0.221 ± 0.003 µM
LogP value [8]: 1.54 ± 0.44
IC50 [9]: 5.79 ± 0.79 µM
IC50 [10]: 7.25 ± 0.4 µM
IC50 [11]: 7.12 ± 0.1 µM
IC50 [1]: 8 ± 1 µM

COc1ccc2cc([C@H](C)C(=O)[O][Au][PH](c3ccccc3)(c3ccccc3)c3ccccc3)ccc2c1 [complex 3]
IC50 ([2]; 72 h incubation, MTT): 0.063 ± 0.006 µM
IC50 ([3]; 72 h incubation, MTT): 0.183 ± 0.001 µM
IC50 [9]: 7.77 ± 0.41 µM
IC50 [10]: 10.1 ± 0.86 µM
IC50 [11]: 6.48 ± 1.43 µM
IC50 [1]: 8 ± 1 µM

O=C(Cc1ccccc1Nc1c(Cl)cccc1Cl)[O][Au][PH](c1ccccc1)(c1ccccc1)c1ccccc1 [complex 4]
stability in DMSO-d6 (31P{1H} and 1H NMR) ([12]; 10 mM, 72 h): unstable in solution

O=C([O][Au][PH](c1ccccc1)(c1ccccc1)c1ccccc1)c1ccccc1O [complex 5]
LogP value [8]: 0.75 ± 0.01
stability in PBS : DMSO (1 : 1) (UV-vis) ([12]; 50 μM, 24 h, 37 °C): but not 5, was stable

Cc1c(Cl)cccc1Nc1ccccc1C(=O)[O][Au][PH](c1ccccc1)(c1ccccc1)c1ccccc1 [complex 6]
LogP value [8]: 1.17 ± 0.37

Cc1cccc(Nc2ccccc2C(=O)[O][Au][PH](c2ccccc2)(c2ccccc2)c2ccccc2)c1C [complex 7]
LogP value [8]: 0.83 ± 0.23

CC(C)Cc1ccc(C(C)C(=O)[O][Au][PH](c2ccccc2)(c2ccccc2)c2ccccc2)cc1 (stereo not drawn) [complex 8]
LogP value [8]: 1.19 ± 0.01

COc1ccc2c(c1)c(CC(=O)O)c(C)n2C(=O)c1ccc(Cl)cc1 [indomethacin]
IC50 [2, 15]: > 100 µM
IC50 [3, 15]: > 100 µM
COX-2 expression [13]: decreased
